We go through three compounds from US10544156B2, “Hemi-synthetic trilobine analogs for use as a drug” (PIERRE FABRE MEDICAMENT, priority 2015, dated 2020).

As usually defined, the EC50 is the concentration that produces a half-maximal response. One may read the inhibition as the relative decrease from the control value, in per cent.

Where two headings read alike, the source gives them in different places.

Assay [1] has as its system P16 promoter in colon cancer cells HCT116. Nature of the assay: C5 DNA methylation analysis of CDKN2A (P16) promoter by COBRA. Format: cell-based, human. The following applies: at 0.1 μM. The procedure: Cancer cell lines (colon HCT116 or leukaemia KG1) were treated with the compounds as indicated in the Data Tables and then analysed as following.
DNA was isolated from cultured cells using the DNeasy Blood and Tissue Kit according to the manufacturer's specifications (Qiagen). DNA bisulphite conversion was performed on 2 μg of DNA using the EZ DNA Methylation-Gold Kit according to the manufacturer's specifications (Zymo Research) and bisulfited DNA was eluted with 10 μL of water.
Two different techniques were used to analyse the DNA methylation profile after bisulfite conversion of genomic DNA: (A) cloning and sequencing or (B) COBRA. The primers for each promoter are specified in Table 4.
This technique is a variation of bisulfite sequencing and combines bisulfite conversion based polymerase chain reaction with restriction digestion. DNA methylation levels are easily and quickly measured at fewer CpG sites than bisulfite-cloning-sequencing.
DNA amplification was set up with 100 ng eluted bisulfited DNA in 50 μL PCR reaction containing 1×PCR buffer, 2.5 mM MgCl2, 0.3 mM dNTPs, 400 nM each primer and 1.25 units EpiTaq HS (Takara) on C1000 Touch™ thermal cycler by 98° C. for 10 sec, 55° C. for 30 sec, 72° C. for 30 sec×40 cycles. 20 μL of PCR amplicons were digested in 30 μL by 2 units of BsiEI at 60° C. for 90 min. DNA fragments were migrated by 2% agarose gel electrophoresis and each band was quantified by Image Lab Software v2.0 (BioRad Laboratories).

Assay [2] concerns luciferase reporter gene under control of methylated CMV promoter in KG-1 cells. Nature of the assay: CMV-luc reexpression in KG-1 cells. The class given is cell-based, human. The following applies: for Induction Fold (IF) of luciferase gene reporter in KG-1 CMV-Luc: 24 h, vs DMSO; for IF-24 h, KG1 CMV-Luc model: at 5 μM, 24 h (Table 5). The procedure: KG-1 cells were stably transfected with the firefly luciferase reporter gene (luc+ from pGL3; Promega) under the control of the cytomegalovirus (CMV) promoter (from pEGFP-N1; Clontech Laboratories Inc.) partially methylated (50%). 20,000 cells per well were seeded in a 96-well plate. After 24 h incubation in the presence of the test compound or solvant (DMSO), the induction of the promoter was measured by quantification of the luciferase signal with the Brite-lite assay system (PerkinElmer) according to the manufacturer's protocol. The luminescence was measured on an EnVision multilabel plate reader (PerkinElmer), and the data are expressed as the fold induction as compared with the DMSO control. The mean of three experiments and the standard error is reported.

Assay [3] concerns the target T1, human C-terminal DNMT3A (623-908a.a.) (Homo sapiens, UniProt Q9Y6K1).
T1 construct: The human C-terminal DNMT3A (623-908a.a.); made in house
Nature of the assay: hDNMT3A assay (restriction-based fluorescence assay). The following applies: for inhibition at 10 µM: read-out: hDNMT 3A inhibition, Inhibition (%) 10 μM; for inhibition at 32 µM: read-out: hDNMT 3A inhibition, Inhibition (%) 32 μM. The class given is biochemical. The source says: hDNMT3A enzyme inhibition was adapted from the restriction-based fluorescence assay protocol as described in the literature (Ceccaldi et al. Chem Bio Chem 2011, 12, 1337-1345). Briefly, a 5′-labelled biotin oligonucleotide is hybridized to its complementary strand labelled with 6-carboxyfluorescein at the 3′-end into a 384 well microplate (black Optiplates; Perkin Elmer) pre-coated with avidin. The duplex contains a unique CpG site overlapping with a restriction site of a methylation sensitive restriction enzyme. The human C-terminal DNMT3A (623-908a.a.), produced as described in (Gros et al. Nucl. Acids Res. 2013, 41(19):e185), was added in each well (200 ng/well) and mixed with the chemical compounds at desired concentrations and freshly prepared SAM (20 μM final concentration) to start the reaction in a total volume of 50 μL. After 1 hour incubation at 37° C. each well were washed three times with PBS, Tween-20 0.05%, NaCl (500 mM) and three more times with PBST. Specific fluorescent signals were detected with the methylation-sensitive restriction enzyme HpyCH4IV (NEB) as described and measured on a Perkin Elmer Envision detector. The percentage of inhibition is reported. The formula used to calculate the percentage of inhibition is [(X−Y)/X]×100, where X is the signal determined in the absence of the inhibitor and Y is the signal obtained in the presence of the inhibitor. The concentration at which 50% of efficacy of inhibition is observed (EC50) was determined by analysis of a concentration range of the tested compound in triplicates. The non-linear regression fittings with sigmoidal dose-response (variable slope) were performed with GraphPad Prism 4.03 (GraphPad Software).

The mark [4] stands for this setting: concentration at which 50% of efficacy of inhibition is observed, read-out: EC50 (μM), hDNMT 3A inhibition.
The mark [5] stands for this setting: interval line below the EC50 of the same compound, read-out: EC50 (μM), range given.

T1 sequence (Q9Y6K1 627-912 limits assumed): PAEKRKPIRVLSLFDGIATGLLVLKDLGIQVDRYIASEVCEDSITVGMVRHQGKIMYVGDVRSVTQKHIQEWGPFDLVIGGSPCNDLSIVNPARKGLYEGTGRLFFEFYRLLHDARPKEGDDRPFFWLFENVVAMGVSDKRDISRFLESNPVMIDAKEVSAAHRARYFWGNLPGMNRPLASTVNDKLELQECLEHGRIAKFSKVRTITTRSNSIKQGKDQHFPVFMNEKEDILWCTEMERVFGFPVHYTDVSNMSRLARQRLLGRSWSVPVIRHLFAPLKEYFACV

In the case of `COc1ccc2cc1Oc1ccc(cc1)C[C@@H]1NCCc3cc(OC)c4c(c31)Oc1cc3c(cc1O4)CCN(C)[C@H]3C2` [Trilobine (1), trilobine], the “Demethylation (COBRA) P16/HCT116” value is given as −37% after 3 days in assay [1] (after 3 days), −52% after 7 days in assay [1] (after 7 days) and −53% after 21 days in assay [1] (after 21 days). Also, the “Induction Fold (IF) of luciferase gene reporter in KG-1 CMV-Luc” value (from here on “Induction Fold (IF)”) in assay [2] (0.1 μM) came out at 1.1 ± 0.1; in assay [2] (0.32 μM) it was 1.9 ± 1.2; in assay [2] (1 μM), 2.6 ± 1.4; in assay [2] (3.2 μM) it was 3.5 ± 1.1; in assay [2] (5 μM) it was 6.4 ± 0.1. The “IF-24 h, KG1 CMV-Luc model” value in assay [2] is reported as 5.8 ± 0.6. Moreover, the EC50 was 3.8 µM in assay [3] (setting [4]) and 3.21 to 4.49 µM in assay [3] (setting [5]). Also, the inhibition at 10 µM in assay [3] stood at 88%. Also, the inhibition at 32 µM in assay [3] stood at 96%.

`CCN(CC)CCCNC(=S)N1CCc2cc3c4cc2[C@@H]1Cc1ccc(OC)c(c1)Oc1ccc(cc1)C[C@H]1c2c(cc(OC)c(c2O4)O3)CCN1C(=S)NCCCN(CC)CC` [Product 41]: the “Demethylation (COBRA) P16/HCT116” value in assay [1] (after 7 days) was 0% after 7 days (at 0.1 μM). For the same compound, the “Induction Fold (IF)” value came to 1.1 ± 0.1 in assay [2] (0.1 μM); 1.1 ± 0.1 in assay [2] (0.32 μM); 1.3 ± 0.1 in assay [2] (1 μM); 2.0 ± 0.3 in assay [2] (3.2 μM); 2.8 ± 0.2 in assay [2] (5 μM); 3.1 ± 0.4 in assay [2] (10 μM). Further, in assay [2], the “IF-24 h, KG1 CMV-Luc model” value was determined as 3.3 ± 0.1. Besides, the 50% effective concentration (EC50) in assay [3] (setting [4]) lay in the range of 0.557 to 0.91 µM. In addition, the inhibition at 10 µM in assay [3] stood at 94%. Besides, in assay [3], the inhibition at 32 µM stood at 95%.

Turning to `CNC(=O)N1CCc2cc(OC)c3c4c2[C@@H]1Cc1ccc(cc1)Oc1cc(ccc1OC)C[C@H]1c2cc(c(cc2CCN1C)O3)O4` [Product 44], in assay [1] (after 7 days), the “Demethylation (COBRA) P16/HCT116” value was 0% after 7 days (at 0.1 μM). For the same compound, the “Induction Fold (IF)” value is reported as 1.1 ± 0.1 in assay [2] (0.1 μM); 1.1 ± 0.1 in assay [2] (0.32 μM); 1.3 ± 0.1 in assay [2] (1 μM); 2.0 ± 0.1 in assay [2] (3.2 μM); 2.5 ± 0.9 in assay [2] (5 μM); 9.0 ± 1.3 in assay [2] (10 μM). Also, the “IF-24 h, KG1 CMV-Luc model” value in assay [2] was determined as 5.9 ± 0.2. Further, the EC50 in assay [3] (setting [4]) is 3.96 µM; in assay [3] (setting [5]) it was 3.04 to 5.17 µM. Besides, the inhibition at 10 µM in assay [3] stood at 82%. Also, in assay [3], the inhibition at 32 µM worked out at 96%.
